Reference: patent US20240090505A1, “MULTI-SOLVENT PESTICIDAL COMPOSITIONS INCLUDING SULFOXIMINE” (CLARKE MOSQUITO CONTROL PRODUCTS, INC., priority 2020, published 2024)

Test system: Culex sp. mosquitos
Test: Laboratory test of samples with and without surfactant (Pluronic L92), knockdown and mortality
Assay type: in vivo
Settings: propylene carbonate:tributyl O-acetylcitrate 1:1
Protocol: Various amounts of different surfactants were evaluated to determine possible impacts on efficacy. In one set of trials, different amounts of sulfoxaflor were tested with and without a surfactant (Pluronic L92 from BASF).

CC(c1ccc(C(F)(F)F)nc1)S(C)(=O)=NC#N (stereo not drawn) [Sulfoxaflor, sulfoxaflor]
1-hour knockdown (0.5 wt% sulfoxaflor, 20 wt% surfactant (Pluronic L92)): 2% | 1-hour knockdown (0.5 wt% sulfoxaflor, no surfactant): 0% | 1-hour knockdown (1 wt% sulfoxaflor, no surfactant): 18%
